Our source for the IC50 values is BindingDB's records for doi:10.1021/acs.jmedchem.8b00370 (Genentech, 2018).

For this test, the target named is Mitogen-activated protein kinase kinase kinase 12 (Homo sapiens) (UniProt Q12852). Description: Inhibition of DLK (unknown origin) using myelin basic protein as substrate preincubated for 15 mins measured after 30 mins in presence of [gamma-32P]ATP by scintillation counting.

A word on the IC50: it is the concentration at which inhibition is half-maximal.

Sequence of Mitogen-activated protein kinase kinase kinase 12 (Homo sapiens) (Q12852 whole entry, looked up): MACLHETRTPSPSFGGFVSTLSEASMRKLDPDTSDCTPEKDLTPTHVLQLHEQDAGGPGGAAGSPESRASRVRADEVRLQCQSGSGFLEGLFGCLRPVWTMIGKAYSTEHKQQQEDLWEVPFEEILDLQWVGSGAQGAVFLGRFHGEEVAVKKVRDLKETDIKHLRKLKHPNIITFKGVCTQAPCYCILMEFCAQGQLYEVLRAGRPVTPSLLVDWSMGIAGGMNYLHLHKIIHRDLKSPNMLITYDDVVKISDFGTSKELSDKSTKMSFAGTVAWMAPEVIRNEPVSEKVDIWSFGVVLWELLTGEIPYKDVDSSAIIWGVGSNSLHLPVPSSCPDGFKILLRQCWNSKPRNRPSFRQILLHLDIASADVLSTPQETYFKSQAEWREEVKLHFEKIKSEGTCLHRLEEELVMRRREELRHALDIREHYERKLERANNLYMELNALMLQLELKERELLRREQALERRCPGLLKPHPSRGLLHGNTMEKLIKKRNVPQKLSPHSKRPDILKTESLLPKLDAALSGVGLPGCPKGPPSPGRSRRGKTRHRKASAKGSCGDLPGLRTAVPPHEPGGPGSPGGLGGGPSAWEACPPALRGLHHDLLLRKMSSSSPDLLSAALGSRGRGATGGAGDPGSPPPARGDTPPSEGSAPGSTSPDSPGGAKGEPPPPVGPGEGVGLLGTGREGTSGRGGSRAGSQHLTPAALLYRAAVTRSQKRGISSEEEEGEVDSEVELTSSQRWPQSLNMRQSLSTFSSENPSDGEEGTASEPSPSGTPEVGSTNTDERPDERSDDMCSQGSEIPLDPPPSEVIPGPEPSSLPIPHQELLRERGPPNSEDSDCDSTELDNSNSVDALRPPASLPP

As to `CC(C)n1c2ccc(Oc3ncccn3)cc2c2c3c(c4c(c21)CCc1nn(C)cc1-4)C(=O)NC3`, the IC50 amounted to 1 nM.
